Activity calls are given as the source filed them. The calls are words filed in the database; no cut-off is given here.
Experiments:
HUVEC = test: Anti-migratory activity against HUVEC cells assessed as wound healing rate at 2.0 nmol/L measured after 24 hrs by wound healing assay (reference value: 97 %); format: functional, Homo sapiens
HGC-27 [1] = test: Induction of apoptosis in human HGC-27 cells assessed as appearance of round cells at 0.25 to 2.0 nmol/L incubated for 48 hrs by bright field microscopic analysis; format: functional, cell-based; details: dose 0.25-2 nmol/L
HGC-27 [2] = test: Induction of apoptosis in human HGC-27 cells assessed as early apoptotic cells at 1.0 nmol/L incubated for 48 hrs by Annexin V-FITC/propidium iodide staining based flow cytometry analysis (reference value: 2.04 %); format: functional

Structure (SMILES): CN(c1ccc2c(ccn2C)c1)c1nc(N2CCCC2)nc2sccc12
- Activity (HUVEC): 44%
- Activity (HGC-27 [1]): Active
- Activity (HGC-27 [2]): 11.52%
